{"source": "patent US6455074B1", "about": "“Methods for fabricating polymer-based controlled release devices” (Alkermes Controlled Therapeutics, Inc., priority 1997, dated 2002)", "tested_on": "estrous cycle of the rat", "assay": "Rat Estrous Cyclicity Model", "type": "in vivo", "protocol": "The Rat Estrous Cyclicity Model is described in detail in Hahn et al., Biological Assays Utilized to Characterize LHRH and its Analogs. In: LHRH and its Analogs, Contraception and Therapeutic Applications (Eds. Vickery B H, Nestor J J, and Hafez ESE), pp. 49-60. MTP Press Ltd, Lancaster, England, 1984, the contents of which are incorporated herein by reference. The model is used to assess the pharnacodynamic effect which an effective serum level of azaline B (at least 2.0 ng/ml), provided by the administration of a sustained release device of the invention, has on the estrous cycle of the rat. When the minimum effective concentration of azaline B is present in serum, the estrus phase of the estrous cycle of the rat is suppressed and the rat remains in the diestrus phase of the estrous cycle.\nMicroparticles containing an effective amount of azaline B were prepared according to the “Particulate Method,” described above, and the methods of Examples 1 and 3. The presence of azaline B activity was measured as the percent of a test group which remained in the diestrus phase of the estrous cycle. Animals were subcutaneously injected with equal amounts of azaline B either encapsulated in a microparticle or unencapsulated. […] The results are depicted in FIGS. 1 and 2 which show a plot of the percent of animals per treatment group in diestrus for each formulation evaluated versus time.", "data": [{"substance": "Ac-D-Nal′-D-Cpa^2-D-Pal^3-Ser^4-Aph^5(atz)-D-Aph^6(atz)-Leu^7-Ilys^8-Pro^9-D-Ala^10 [azaline B]", "values": [{"measurement": "effective serum level of azaline B (minimum effective concentration suppressing estrus phase)", "result": "at least 2.0 ng/ml"}]}]}
